Measurements as given in the supplement of paper PMC10627819.

Experiments:
Test in all cases: Bliss interaction score (quartile over a dose matrix) (fitness difference); higher = more antagonism (negative = synergy)
S. pneumoniae D39V = system: S. pneumoniae D39V
Method in brief: (§1)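 Growth was read as OD595 when cultures entered stationary phase, and each value was divided by the plate's robust no-drug mean and capped at 1. This normalised ratio is the fitness value, and fitness for each single drug came from the combination data. The Bliss score subtracts the expected fitness, taken as the product, from the observed fitness and is given as quartiles across technical, biological and donor/recipient replicates.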

S. aureus Newman = system: S. aureus Newman
Method in brief: as §1

B. subtilis 168 = system: B. subtilis 168
Method in brief: as §1

S. aureus DSM 20231 = system: S. aureus DSM 20231
Method in brief: as §1
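Note: first quartile when negative (synergy) and third quartile when positive (antagonism).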

| Structure (SMILES) | Bliss interaction score (S. pneumoniae D39V; main component drawn) | Bliss interaction score (S. aureus Newman; main component drawn) | Bliss interaction score (B. subtilis 168; main component drawn) | Bliss interaction score (S. aureus DSM 20231; main component drawn) | Bliss interaction score (S. pneumoniae D39V) | Bliss interaction score (S. aureus Newman) | Bliss interaction score (B. subtilis 168) | Bliss interaction score (S. aureus DSM 20231) |
| --- | --- | --- | --- | --- | --- | --- | --- | --- |
| CC[C@H](C)[C@H](N)C1=N[C@H](C(=O)N[C@@H](CC(C)C)C(=O)N[C@H](CCC(=O)O)C(=O)N[C@H](C(=O)N[C@H]2CCCCNC(=O)[C@H](CC(N)=O)NC(=O)[C@@H](CC(=O)O)NC(=O)[C@H](Cc3cnc[nH]3)NC(=O)[C@@H](Cc3ccccc3)NC(=O)[C@H]([C@@H](C)CC)NC(=O)[C@@H](CCCN)NC2=O)[C@@H](C)CC)CS1 [Bacitracin] + CC[C@H]1OC(=O)[C@H](C)C(=O)[C@H](C)[C@@H](O[C@@H]2O[C@H](C)C[C@H](N(C)C)[C@H]2O)[C@](C)(OC)C[C@@H](C)C(=O)[C@H](C)[C@H]2N(CCCCn3cnc(-c4cccnc4)c3)C(=O)O[C@]12C [Telithromycin] | 0.0263 | -0.047 | -0.0381 | -0.0302 | – | – | – | – |
| CC[C@H](C)[C@H](N)C1=N[C@H](C(=O)N[C@@H](CC(C)C)C(=O)N[C@H](CCC(=O)O)C(=O)N[C@H](C(=O)N[C@H]2CCCCNC(=O)[C@H](CC(N)=O)NC(=O)[C@@H](CC(=O)O)NC(=O)[C@H](Cc3cnc[nH]3)NC(=O)[C@@H](Cc3ccccc3)NC(=O)[C@H]([C@@H](C)CC)NC(=O)[C@@H](CCCN)NC2=O)[C@@H](C)CC)CS1 [Bacitracin] + CC[C@H]1OC(=O)[C@H](C)[C@@H](O[C@H]2C[C@@](C)(OC)[C@@H](O)[C@H](C)O2)[C@H](C)[C@@H](O[C@@H]2O[C@H](C)C[C@H](N(C)C)[C@H]2O)[C@](C)(O)C[C@@H](C)C(=O)[C@H](C)[C@@H](O)[C@]1(C)O [Erythromycin] | 0.0397 | -0.0632 | -0.0517 | -0.0209 | – | – | – | – |
| CC[C@H](C)[C@H](N)C1=N[C@H](C(=O)N[C@@H](CC(C)C)C(=O)N[C@H](CCC(=O)O)C(=O)N[C@H](C(=O)N[C@H]2CCCCNC(=O)[C@H](CC(N)=O)NC(=O)[C@@H](CC(=O)O)NC(=O)[C@H](Cc3cnc[nH]3)NC(=O)[C@@H](Cc3ccccc3)NC(=O)[C@H]([C@@H](C)CC)NC(=O)[C@@H](CCCN)NC2=O)[C@@H](C)CC)CS1 [Bacitracin] + CC[C@H]1OC(=O)[C@H](C)[C@@H](O[C@H]2C[C@@](C)(OC)[C@@H](O)[C@H](C)O2)[C@H](C)[C@@H](O[C@@H]2O[C@H](C)C[C@H](N(C)C)[C@H]2O)[C@](C)(OC)C[C@@H](C)C(=O)[C@H](C)[C@@H](O)[C@]1(C)O [Clarithromycin] | -0.0454 | -0.0869 | 0.0539 | -0.0475 | – | – | – | – |
| CC[C@H](C)[C@H](N)C1=N[C@H](C(=O)N[C@@H](CC(C)C)C(=O)N[C@H](CCC(=O)O)C(=O)N[C@H](C(=O)N[C@H]2CCCCNC(=O)[C@H](CC(N)=O)NC(=O)[C@@H](CC(=O)O)NC(=O)[C@H](Cc3cnc[nH]3)NC(=O)[C@@H](Cc3ccccc3)NC(=O)[C@H]([C@@H](C)CC)NC(=O)[C@@H](CCCN)NC2=O)[C@@H](C)CC)CS1 [Bacitracin] + CN(C)[C@@H]1C(O)=C(C(N)=O)C(=O)[C@@]2(O)C(O)=C3C(=O)c4c(O)ccc(Cl)c4[C@@](C)(O)[C@H]3C[C@@H]12 [Clortetracycline] | 0.135 | -0.0827 | -0.12 | 0.0294 | – | – | – | – |
| CC[C@H](C)[C@H](N)C1=N[C@H](C(=O)N[C@@H](CC(C)C)C(=O)N[C@H](CCC(=O)O)C(=O)N[C@H](C(=O)N[C@H]2CCCCNC(=O)[C@H](CC(N)=O)NC(=O)[C@@H](CC(=O)O)NC(=O)[C@H](Cc3cnc[nH]3)NC(=O)[C@@H](Cc3ccccc3)NC(=O)[C@H]([C@@H](C)CC)NC(=O)[C@@H](CCCN)NC2=O)[C@@H](C)CC)CS1 [Bacitracin] + CN[C@H](CC(C)C)C(=O)N[C@H]1C(=O)N[C@@H](CC(N)=O)C(=O)N[C@H]2C(=O)N[C@H]3C(=O)N[C@H](C(=O)N[C@H](C(=O)O)c4cc(O)cc(O)c4-c4cc3ccc4O)[C@H](O[C@H]3C[C@](C)(N)[C@@H](O)[C@H](C)O3)c3ccc(c(Cl)c3)Oc3cc2cc(c3O[C@@H]2O[C@H](CO)[C@@H](O)[C@H](O)[C@H]2O[C@H]2C[C@](C)(NCc3ccc(-c4ccc(Cl)cc4)cc3)[C@@H](O)[C@H](C)O2)Oc2ccc(cc2Cl)[C@H]1O [Oritavancin] | 0.0372 | 0.084 | -0.0398 | -0.0199 | – | – | – | – |
| CC[C@H](C)[C@H](N)C1=N[C@H](C(=O)N[C@@H](CC(C)C)C(=O)N[C@H](CCC(=O)O)C(=O)N[C@H](C(=O)N[C@H]2CCCCNC(=O)[C@H](CC(N)=O)NC(=O)[C@@H](CC(=O)O)NC(=O)[C@H](Cc3cnc[nH]3)NC(=O)[C@@H](Cc3ccccc3)NC(=O)[C@H]([C@@H](C)CC)NC(=O)[C@@H](CCCN)NC2=O)[C@@H](C)CC)CS1 [Bacitracin] + CO[C@@]12[C@H](COC(N)=O)C3=C(C(=O)C(C)=C(N)C3=O)N1C[C@@H]1N[C@@H]12 [MitomycinC] | -0.0853 | -0.0961 | -0.0673 | -0.0743 | – | – | – | – |
| CC[C@H](C)[C@H](N)C1=N[C@H](C(=O)N[C@@H](CC(C)C)C(=O)N[C@H](CCC(=O)O)C(=O)N[C@H](C(=O)N[C@H]2CCCCNC(=O)[C@H](CC(N)=O)NC(=O)[C@@H](CC(=O)O)NC(=O)[C@H](Cc3cnc[nH]3)NC(=O)[C@@H](Cc3ccccc3)NC(=O)[C@H]([C@@H](C)CC)NC(=O)[C@@H](CCCN)NC2=O)[C@@H](C)CC)CS1 [Bacitracin] + CO[C@H]1/C=C/O[C@@]2(C)Oc3c(C)c(O)c4c(O)c(c(/C=N/N5CCN(C)CC5)c(O)c4c3C2=O)NC(=O)/C(C)=C\C=C\[C@H](C)[C@H](O)[C@@H](C)[C@@H](O)[C@@H](C)[C@H](OC(C)=O)[C@@H]1C [Rifampicin] | 0.104 | -0.0236 | -0.0806 | 0.0174 | – | – | – | – |
| CC[C@H](C)[C@H](N)C1=N[C@H](C(=O)N[C@@H](CC(C)C)C(=O)N[C@H](CCC(=O)O)C(=O)N[C@H](C(=O)N[C@H]2CCCCNC(=O)[C@H](CC(N)=O)NC(=O)[C@@H](CC(=O)O)NC(=O)[C@H](Cc3cnc[nH]3)NC(=O)[C@@H](Cc3ccccc3)NC(=O)[C@H]([C@@H](C)CC)NC(=O)[C@@H](CCCN)NC2=O)[C@@H](C)CC)CS1 [Bacitracin] + C[C@@H](O)[C@H]1C(=O)N2C(C(=O)O)=C(SCCNC=N)C[C@H]12 [Imipenem] | -0.0576 | -0.0113 | -0.359 | 0.0207 | – | – | – | – |
| CC[C@H](C)[C@H](N)C1=N[C@H](C(=O)N[C@@H](CC(C)C)C(=O)N[C@H](CCC(=O)O)C(=O)N[C@H](C(=O)N[C@H]2CCCCNC(=O)[C@H](CC(N)=O)NC(=O)[C@@H](CC(=O)O)NC(=O)[C@H](Cc3cnc[nH]3)NC(=O)[C@@H](Cc3ccccc3)NC(=O)[C@H]([C@@H](C)CC)NC(=O)[C@@H](CCCN)NC2=O)[C@@H](C)CC)CS1 [Bacitracin] + Clc1ccc(COC(Cn2ccnc2)c2ccc(Cl)cc2Cl)c(Cl)c1 [Miconazole] | 0.113 | -0.0691 | -0.0878 | -0.0238 | – | – | – | – |
| CC[C@H](C)[C@H](N)C1=N[C@H](C(=O)N[C@@H](CC(C)C)C(=O)N[C@H](CCC(=O)O)C(=O)N[C@H](C(=O)N[C@H]2CCCCNC(=O)[C@H](CC(N)=O)NC(=O)[C@@H](CC(=O)O)NC(=O)[C@H](Cc3cnc[nH]3)NC(=O)[C@@H](Cc3ccccc3)NC(=O)[C@H]([C@@H](C)CC)NC(=O)[C@@H](CCCN)NC2=O)[C@@H](C)CC)CS1 [Bacitracin] + N[C@@H]1CONC1=O [CycloserineD] | 0.118 | 0.0872 | 0.0719 | -0.0841 | – | – | – | – |
| CC[C@H](C)[C@H](N)C1=N[C@H](C(=O)N[C@@H](CC(C)C)C(=O)N[C@H](CCC(=O)O)C(=O)N[C@H](C(=O)N[C@H]2CCCCNC(=O)[C@H](CC(N)=O)NC(=O)[C@@H](CC(=O)O)NC(=O)[C@H](Cc3cnc[nH]3)NC(=O)[C@@H](Cc3ccccc3)NC(=O)[C@H]([C@@H](C)CC)NC(=O)[C@@H](CCCN)NC2=O)[C@@H](C)CC)CS1 [Bacitracin] + O=C1CN(/N=C/c2ccc([N+](=O)[O-])o2)C(=O)N1 [Nitrofurantoin] | -0.0709 | 0.0654 | -0.192 | -0.0336 | – | – | – | – |
| CC[C@H](C)[C@H](N)C1=N[C@H](C(=O)N[C@@H](CC(C)C)C(=O)N[C@H](CCC(=O)O)C(=O)N[C@H](C(=O)N[C@H]2CCCCNC(=O)[C@H](CC(N)=O)NC(=O)[C@@H](CC(=O)O)NC(=O)[C@H](Cc3cnc[nH]3)NC(=O)[C@@H](Cc3ccccc3)NC(=O)[C@H]([C@@H](C)CC)NC(=O)[C@@H](CCCN)NC2=O)[C@@H](C)CC)CS1 [Bacitracin] + O=C(O)[C@H]1/C(=C/CO)O[C@@H]2CC(=O)N21 [Clavulanic] | -0.0867 | 0.241 | 0.107 | -0.0375 | – | – | – | – |
| CC[C@H](C)[C@H](N)C1=N[C@H](C(=O)N[C@@H](CC(C)C)C(=O)N[C@H](CCC(=O)O)C(=O)N[C@H](C(=O)N[C@H]2CCCCNC(=O)[C@H](CC(N)=O)NC(=O)[C@@H](CC(=O)O)NC(=O)[C@H](Cc3cnc[nH]3)NC(=O)[C@@H](Cc3ccccc3)NC(=O)[C@H]([C@@H](C)CC)NC(=O)[C@@H](CCCN)NC2=O)[C@@H](C)CC)CS1 [Bacitracin] + Oc1cc(Cl)ccc1Oc1ccc(Cl)cc1Cl [Triclosan] | 0.056 | -0.0148 | -0.136 | 0.0303 | – | – | – | – |
| CC[C@H]1OC(=O)[C@H](C)[C@@H](O[C@H]2C[C@@](C)(OC)[C@@H](O)[C@H](C)O2)[C@H](C)[C@@H](O[C@@H]2O[C@H](C)C[C@H](N(C)C)[C@H]2O)[C@](C)(O)C[C@@H](C)C(=O)[C@H](C)[C@@H](O)[C@]1(C)O [Erythromycin] + C/C(=C\C(=O)OCCCCCCCCC(=O)O)C[C@@H]1OC[C@H](C[C@@H]2O[C@H]2[C@@H](C)[C@H](C)O)[C@@H](O)[C@H]1O [Pseudomonic acid] | – | – | – | – | 0.0664 | -0.0171 | 0.0626 | -0.0124 |
| CC[C@H]1OC(=O)[C@H](C)[C@@H](O[C@H]2C[C@@](C)(OC)[C@@H](O)[C@H](C)O2)[C@H](C)[C@@H](O[C@@H]2O[C@H](C)C[C@H](N(C)C)[C@H]2O)[C@](C)(O)C[C@@H](C)C(=O)[C@H](C)[C@@H](O)[C@]1(C)O [Erythromycin] + CC1(C)S[C@@H]2[C@H](NC(=O)Cc3ccccc3)C(=O)N2[C@H]1C(=O)O [PenicillinG] | – | – | – | – | -0.0381 | -0.0654 | 0.0463 | 0.0265 |
| CC[C@H]1OC(=O)[C@H](C)[C@@H](O[C@H]2C[C@@](C)(OC)[C@@H](O)[C@H](C)O2)[C@H](C)[C@@H](O[C@@H]2O[C@H](C)C[C@H](N(C)C)[C@H]2O)[C@](C)(O)C[C@@H](C)C(=O)[C@H](C)[C@@H](O)[C@]1(C)O [Erythromycin] + CC1=C\[C@@H](O)CC(=O)Cc2nc(co2)C(=O)N2CCC=C2C(=O)O[C@H](C(C)C)[C@H](C)/C=C/C(=O)NC\C=C\1 [Virginiamycin M1] | – | – | – | – | 0.0687 | 0.066 | -0.0578 | 0.0769 |
| CC[C@H]1OC(=O)[C@H](C)[C@@H](O[C@H]2C[C@@](C)(OC)[C@@H](O)[C@H](C)O2)[C@H](C)[C@@H](O[C@@H]2O[C@H](C)C[C@H](N(C)C)[C@H]2O)[C@](C)(O)C[C@@H](C)C(=O)[C@H](C)[C@@H](O)[C@]1(C)O [Erythromycin] + CC(=O)NC[C@H]1CN(c2ccc(N3CCOCC3)c(F)c2)C(=O)O1 [Linezolid] | – | – | – | – | 0.068 | -0.0521 | -0.0534 | -0.018 |
